{"source": "patent US20240315966A1", "about": "“COMPOSITION CONTAINING LOXOPROFEN SODIUM” (GUANGZHOU OCUSUN OPHTHALMIC BIOTECHNOLOGY CO., LTD., priority 2021, published 2024)", "assay": "Phase I clinical trial, pharmacokinetics of loxoprofen sodium eye drops", "conditions": "human, in vivo, topical or ocular; for AUC(0-t): read-out: Average AUC0-t", "description": "loxoprofen sodium eye drops: eye drops of different concentrations were prepared according to Example 1; and\n2. Research methods: single-center, randomized, double-blind, single and multiple administration dosage escalation designs were used to explore the safety, tolerability and pharmacokinetic characteristics of loxoprofen sodium eye drops. Single administration includes dosages of 0.025 mg (a concentration of 0.5 mg/ml), 0.05 mg (a concentration of 1 mg/ml), 0.1 mg (a concentration of 2 mg/ml), and 0.2 mg (a concentration of 4 mg/mL), with an administration method of once a day, one drop each; and multiple administration includes dosages of 0.05 mg, 0.1 mg, and 0.2 mg, with an administration method of four times a day, one drop each.", "note": "Like-named read-outs stand apart in the source and are kept apart here."}
{"smiles": "CC(C(=O)O)c1ccc(CC2CCCC2=O)cc1", "note": "(stereo not shown) [loxoprofen]", "values": [{"measurement": "Cmax", "setting": "0.05 mg, multiple administration (four times a day)", "result": "2.66 ± 0.6", "unit": "ng/mL"}, {"measurement": "AUC(0-t)", "setting": "0.05 mg, multiple administration (four times a day), 0.05 mg", "result": "0.47 ± 0.43", "unit": "ng·h/mL"}, {"measurement": "Cmax", "setting": "0.1 mg, multiple administration (four times a day)", "result": "4.22 ± 1.79", "unit": "ng/mL"}, {"measurement": "AUC(0-t)", "setting": "0.1 mg, multiple administration (four times a day), 0.1 mg", "result": "2.08 ± 1.56", "unit": "ng·h/mL"}, {"measurement": "Cmax", "setting": "0.1 mg, single administration", "result": "3.69 ± 0.88", "unit": "ng/mL"}, {"measurement": "AUC(0-t)", "setting": "0.1 mg, single administration, 0.1 mg", "result": "1.71 ± 0.99", "unit": "ng·h/mL"}, {"measurement": "Cmax", "setting": "0.2 mg, multiple administration (four times a day)", "result": "9.46 ± 3.73", "unit": "ng/mL"}, {"measurement": "AUC(0-t)", "setting": "0.2 mg, multiple administration (four times a day), 0.2 mg", "result": "8.33 ± 4.4", "unit": "ng·h/mL"}, {"measurement": "Cmax", "setting": "0.2 mg, single administration", "result": "8.73 ± 5.19", "unit": "ng/mL"}, {"measurement": "AUC(0-t)", "setting": "0.2 mg, single administration, 0.2 mg", "result": "6.82 ± 6.3", "unit": "ng·h/mL"}, {"measurement": "Tmax", "setting": "multiple administration (four times a day), 0.05 mg", "result": 12, "unit": "min"}, {"measurement": "Tmax", "setting": "multiple administration (four times a day), 0.1 mg", "result": 12, "unit": "min"}, {"measurement": "Tmax", "setting": "multiple administration (four times a day), 0.2 mg", "result": 12, "unit": "min"}]}
